These are literature values, as cited in patent US10391078B2, “Methods for the treatment of mast cell related disorders with mast cell stabilizers” (Respivant Sciences GmbH, priority 2015, dated 2019).

Like-named read-outs stand apart in the source and are kept apart here.

Consider `O=C(O)c1cc(=O)c2c(OCC(O)COc3cccc4oc(C(=O)O)cc(=O)c34)cccc2o1` [cromolyn sodium], for which the oral bioavailability entry was “less than 1%”. The oral bioavailability result (listed as cromolyn) is “about 1%”.
